Results as given in ChEMBL document CHEMBL1154822, “Synthesis and antiproliferative activity of 7-azaindirubin-3'-oxime, a 7-aza isostere of the natural indirubin pharmacophore” (J Nat Prod, 2009).

Columns and labels:
Format in all cases: functional
[1] = tested on: RPMI-8226; test: Cytotoxicity against human RPMI8226 cells assessed as cell growth at 0.1 uM after 1 to 11 days by MTT assay; conditions: read-out: Activity
[2] = tested on: SF-268; test: Cytotoxicity against human SF268 cells assessed as cell growth at 100 uM after 1 to 11 days by MTT assay; conditions: read-out: Activity
[3] = tested on: SR; test: Cytotoxicity against human SR cells assessed as cell growth at 1 uM after 1 to 11 days by MTT assay; conditions: read-out: Activity
[4] = tested on: NCI-H322M; test: Cytotoxicity against human NCI-H322M cells assessed as cell growth at 10 uM after 1 to 11 days by MTT assay; conditions: read-out: Activity
[5] = tested on: A549; test: Cytotoxicity against human A549 cells assessed as cell growth at 0.1 uM after 1 to 11 days by MTT assay; conditions: read-out: Activity
[6] = tested on: K562; test: Cytotoxicity against human K562 cells assessed as cell growth at 1 mM after 1 to 11 days by MTT assay; conditions: read-out: Activity
[7] = tested on: MDA-MB-231; test: Cytotoxicity against human MDA-MB-231 cells assessed as cell growth at 100 uM after 1 to 11 days by MTT assay; conditions: read-out: Activity
[8] = tested on: SK-MEL-28; test: Cytotoxicity against human SK-MEL-28 cells assessed as cell growth at 10 uM after 1 to 11 days by MTT assay; conditions: read-out: Activity
[9] = tested on: IGROV-1; test: Cytotoxicity against human IGROV1 cells after 1 to 11 days by MTT assay
[10] = tested on: HOP-92; test: Cytotoxicity against human HOP92 cells after 1 to 11 days by MTT assay
[11] = tested on: RPMI-8226; test: Cytotoxicity against human RPMI8226 cells assessed as cell growth at 10 uM after 1 to 11 days by MTT assay; conditions: read-out: Activity
[12] = tested on: PC-3; test: Cytotoxicity against human PC3 cells assessed as cell growth at 1 mM after 1 to 11 days by MTT assay; conditions: read-out: Activity
[13] = tested on: KM12; test: Cytotoxicity against human KM12 cells assessed as cell growth at 1 mM after 1 to 11 days by MTT assay; conditions: read-out: Activity
[14] = tested on: NCI/ADR-RES; test: Cytotoxicity against human NCI/ADR-RES cells assessed as cell growth at 1 mM after 1 to 11 days by MTT assay; conditions: read-out: Activity
[15] = tested on: PC-3; test: Cytotoxicity against human PC3 cells assessed as cell growth at 0.1 uM after 1 to 11 days by MTT assay; conditions: read-out: Activity
[16] = tested on: U-251; test: Cytotoxicity against human U251 cells assessed as cell growth at 10 uM after 1 to 11 days by MTT assay; conditions: read-out: Activity
[17] = tested on: UACC-257; test: Cytotoxicity against human UACC257 cells assessed as cell growth at 10 uM after 1 to 11 days by MTT assay; conditions: read-out: Activity
[18] = tested on: MDA-MB-468; test: Cytotoxicity against human MDA-MB-468 cells assessed as cell growth at 10 uM after 1 to 11 days by MTT assay; conditions: read-out: Activity
[19] = tested on: SK-MEL-28; test: Cytotoxicity against human SK-MEL-28 cells assessed as cell growth at 100 uM after 1 to 11 days by MTT assay; conditions: read-out: Activity
[20] = tested on: LOX IMVI; test: Cytotoxicity against human LOXIMVI cells after 1 to 11 days by MTT assay
[21] = tested on: Malme-3M; test: Cytotoxicity against human MALME-3M cells after 1 to 11 days by MTT assay
[22] = tested on: SK-MEL-5; test: Cytotoxicity against human SK-MEL-5 cells assessed as cell growth at 1 mM after 1 to 11 days by MTT assay; conditions: read-out: Activity
[23] = tested on: MOLT-4; test: Cytotoxicity against human MOLT4 cells assessed as cell growth at 10 uM after 1 to 11 days by MTT assay; conditions: read-out: Activity
[24] = tested on: TK-10; test: Cytotoxicity against human TK10 cells assessed as cell growth at 1 uM after 1 to 11 days by MTT assay; conditions: read-out: Activity
[25] = tested on: HCC 2998; test: Cytotoxicity against human HCC2998 cells assessed as cell growth at 100 uM after 1 to 11 days by MTT assay; conditions: read-out: Activity
[26] = tested on: Malme-3M; test: Cytotoxicity against human MALME-3M cells assessed as cell growth at 10 uM after 1 to 11 days by MTT assay; conditions: read-out: Activity
[27] = tested on: SF-268; test: Cytotoxicity against human SF268 cells assessed as cell growth at 1 uM after 1 to 11 days by MTT assay; conditions: read-out: Activity
[28] = tested on: MDA-MB-468; test: Cytotoxicity against human MDA-MB-468 cells assessed as cell growth at 0.1 uM after 1 to 11 days by MTT assay; conditions: read-out: Activity
[29] = tested on: U-251; test: Cytotoxicity against human U251 cells assessed as cell growth at 1 uM after 1 to 11 days by MTT assay; conditions: read-out: Activity
[30] = tested on: NCI-H522; test: Cytotoxicity against human NCI-H522 cells assessed as cell growth at 1 uM after 1 to 11 days by MTT assay; conditions: read-out: Activity
[31] = tested on: A549; test: Cytotoxicity against human A549 cells after 1 to 11 days by MTT assay
[32] = tested on: SF-539; test: Cytotoxicity against human SF539 cells assessed as cell growth at 1 mM after 1 to 11 days by MTT assay; conditions: read-out: Activity
[33] = tested on: SNB-19; test: Cytotoxicity against human SNB19 cells assessed as cell growth at 0.1 uM after 1 to 11 days by MTT assay; conditions: read-out: Activity
[34] = tested on: RXF 393; test: Cytotoxicity against human […] cells assessed as cell growth at 1 mM after 1 to 11 days by MTT assay; conditions: read-out: Activity
[35] = tested on: SK-MEL-28; test: Cytotoxicity against human SK-MEL-28 cells assessed as cell growth at 0.1 uM after 1 to 11 days by MTT assay; conditions: read-out: Activity
[36] = tested on: HT-29; test: Cytotoxicity against human HT-29 cells assessed as cell growth at 10 uM after 1 to 11 days by MTT assay; conditions: read-out: Activity
[37] = tested on: NCI-H460; test: Cytotoxicity against human NCI-H460 cells after 1 to 11 days by MTT assay
[38] = tested on: SK-MEL-5; test: Cytotoxicity against human SK-MEL-5 cells assessed as cell growth at 1 uM after 1 to 11 days by MTT assay; conditions: read-out: Activity
[39] = tested on: UACC-257; test: Cytotoxicity against human UACC257 cells after 1 to 11 days by MTT assay
[40] = tested on: 786-0; test: Cytotoxicity against human 786-0 cells assessed as cell growth at 1 uM after 1 to 11 days by MTT assay; conditions: read-out: Activity
[41] = tested on: HOP-92; test: Cytotoxicity against human HOP92 cells assessed as cell growth at 100 uM after 1 to 11 days by MTT assay; conditions: read-out: Activity
[42] = tested on: KM12; test: Cytotoxicity against human KM12 cells assessed as cell growth at 1 uM after 1 to 11 days by MTT assay; conditions: read-out: Activity
[43] = tested on: HCT-116; test: Cytotoxicity against human HCT116 cells assessed as cell growth at 0.1 uM after 1 to 11 days by MTT assay; conditions: read-out: Activity
[44] = read-out: LC50 (the source's name)

O=C1Nc2ncccc2/C1=C1/Nc2ccccc2/C1=N\O
growth at 0.1 µM [1]: 95%
growth at 100 µM [2]: 54%
growth at 1 µM [3]: 89%
growth at 10 µM [4]: 56%
growth at 0.1 µM [5]: 102%
growth at 1000 µM [6]: 25%
growth at 100 µM [7]: 40%
growth at 10 µM [8]: 87%
GI50 [9]: 1.64 µM
TGI [9]: > 100 µM
CC50 [9, 44]: > 100 µM
GI50 [10]: 2.97 µM
TGI [10]: > 100 µM
CC50 [10, 44]: > 100 µM
growth at 10 µM [11]: 68%
growth at 1000 µM [12]: 45%
growth at 1000 µM [13]: 6%
growth at 1000 µM [14]: 55%
growth at 0.1 µM [15]: 96%
growth at 10 µM [16]: 89%
growth at 10 µM [17]: 114%
growth at 10 µM [18]: 80%
growth at 100 µM [19]: 54%
GI50 [20]: 5.17 µM
TGI [20]: > 100 µM
CC50 [20, 44]: > 100 µM
GI50 [21]: 3.36 µM
TGI [21]: 172 µM
CC50 [21, 44]: > 100 µM
growth at 1000 µM [22]: 30%
growth at 10 µM [23]: 70%
growth at 1 µM [24]: 104%
growth at 100 µM [25]: 39%
growth at 10 µM [26]: 91%
growth at 1 µM [27]: 99%
growth at 0.1 µM [28]: 77%
growth at 1 µM [29]: 97%
growth at 1 µM [30]: 99%
GI50 [31]: 3.5 µM
TGI [31]: > 100 µM
CC50 [31, 44]: > 100 µM
growth at 1000 µM [32]: 52%
growth at 0.1 µM [33]: 94%
growth at 1000 µM [34]: 7%
growth at 0.1 µM [35]: 88%
growth at 10 µM [36]: 99%
GI50 [37]: 7.02 µM
TGI [37]: > 100 µM
CC50 [37, 44]: > 100 µM
growth at 1 µM [38]: 98%
GI50 [39]: > 100 µM
TGI [39]: > 100 µM
CC50 [39, 44]: > 100 µM
growth at 1 µM [40]: 115%
growth at 100 µM [41]: 36%
growth at 1 µM [42]: 91%
growth at 0.1 µM [43]: 109%
